Tests used:
[1] = system: gentamicin-induced acute kidney injury in rats; assay: Gentamicin-induced acute kidney injury in rats: serum indexes and urinary protein; type: in vivo, SD rats; details: for Urinary Protein, 5th day of administration / Urinary Protein, 6th day of administration / Urinary Protein, 7th day of administration / BUN / CREA / TP: by gavage; for BUN / CREA / TP: serum, 7 days
Excerpt: Acute renal failure induced by gentamicin was mainly manifested in the increase of creatinine and urea nitrogen, but the mechanism of gentamicin induced nephrotoxicity was still unclear. In this experiment, two kinds of rectal mucosa administration preparations of Pulsatilla chinensis saponin B4 according to the present invention were infused by anus to observe the preventive and therapeutic effects of tested drugs on gentamicin-induced ARF in rats, and compared with oral (gavage) administration of Pulsatilla chinensis saponin B4.
(§1) Dexamethasone solution: 4 tablets of dexamethasone were ground and dissolved in 100 ml double distilled water, and then diluted to 0.03 mg/ml.
B4 raw powder solution: 2000 mg of B4 raw powder was weighed, ground, and dissolved in 100 ml double distilled water to obtain 20 mg/ml solution.
Rats in experimental groups were intraperitoneally injected with gentamicin sulfate solution at the dose of 140 mg/kg, while the rats in the blank group were intraperitoneally injected with equal volume of normal saline, and the administration was continued for 7 days to make a model.
The animals were randomly divided into blank group; model group; positive drug group (dexamethasone group); B4 gel high, medium, and low dose groups; B4 suppository high, medium, and low dose groups; B4 powder group; 10 animals for each group. Animals in B4 gel groups received the gel by rectum at 0.3 ml/100 g body weight; animals in B4 suppository groups received the suppository by rectum; B4 raw powder group and positive group were given corresponding drugs by gavage according to 10 ml/kg body weight. The model group and the blank group were given the same volume of double distilled water by gavage. The drug was continuously administered for 7 days from the second day of modeling.
Urine proteins were detected by Coomassie brilliant blue method. After isoflurane anesthesia, blood samples were taken from eyeballs of rats. Serum was separated. Total protein (TP), urea nitrogen (BUN), and creatinine (CRE) were detected by automatic biochemical analysis.

[2] = system: cisplatin-induced acute kidney injury in mice; assay: Cisplatin-induced acute kidney injury in mice: serum indexes and urinary protein; type: in vivo, ICR mice; details: for Urinary Protein / BUN / CREA / TP: by gavage, 4 days; for Urinary Protein: one hour after the last administration; for BUN / CREA / TP: serum
Procedure: After intraperitoneal injection of cisplatin, cisplatin was toxic to different parts of the kidney. It could cause changes in the function and morphology of glomerulus and renal tubules. Cisplatin could cause renal vasoconstriction, reduce renal blood flow and glomerular filtration rate, and thus cause proteinuria, renal function damage and other symptoms. In this study, B4 was administered by different routes (rectum and oral) to observe the preventive and therapeutic effects of B4 on cisplatin-induced ARF in mice.
2.1.2 Reagent: cisplatin, the original solution 5 mg/kg.
as §1
B4 raw powder solution: 1000 mg of B4 raw powder was weighed, ground, and dissolved in 100 ml double distilled water to obtain 10 mg/ml solution.
The model was established by cisplatin at a dosage of […]. The normal group was intraperitoneally injected with normal saline, and the other groups were intraperitoneally injected with cisplatin injection.
The animals were randomly divided into blank group; model group; positive drug group (dexamethasone group); B4 gel high, medium, and low dose groups; B4 suppository high, medium, and low dose groups; B4 raw powder group; 10 animals for each group. Animals in B4 gel groups received the gel by rectum at 0.3 ml/100 g body weight; animals in B4 suppository groups received the suppository by rectum; B4 raw powder group and positive group were given corresponding drugs by gavage according to 20 m/kg body weight. The model group and the blank group were given the same volume of double distilled water by gavage. The drug was continuously administered for 4 days from the day of modeling. Animals were fasted for 16-18 hours before administration on day 4.
One hour after the last administration, urine was collected to measure urine proteins. Blood samples were taken from eyeballs to separate serum. Total protein (TP), urea nitrogen (BUN) and creatinine (Cre) were detected by automatic biochemical analysis.

[3] = gel and suppository by rectum, raw powder oral

## C=C(C)C1CC[C@]2(C(=O)O[C@@H]3O[C@H](CO[C@@H]4O[C@H](CO)[C@@H](O[C@@H]5O[C@@H](C)[C@H](O)[C@@H](O)[C@H]5O)[C@H](O)[C@H]4O)[C@@H](O)[C@H](O)[C@H]3O)CC[C@]3(C)[C@H](CC[C@@H]4[C@@]5(C)CC[C@H](OC6OC[C@H](O)[C@H](O)[C@H]6O[C@@H]6O[C@@H](C)[C@H](O)[C@@H](O)[C@H]6O)[C@@](C)(CO)[C@@H]5CC[C@]43C)[C@@H]12 (stereo partly shown) [B4 raw powder, Pulsatilla chinensis saponin B4]
[1]; 200 mg/kg
  Urinary Protein, 5th day of administration: 4.86 ± 1.22 mg/mL
  Urinary Protein, 6th day of administration: 5.18 ± 1.15 mg/mL
  Urinary Protein, 7th day of administration: 5.38 ± 0.92 mg/mL
  BUN: 126.4 mg/dL
  CREA: 268.7 ± 56.2 µmol/L
  TP: 53.2 ± 4.3 g/L
[1]; [3]
  effect on renal function (creatinine and urea nitrogen), conclusion in words: had a tendency to improve the renal function
[2]; 400 mg/kg
  Urinary Protein: 1.55 mg/mL
  BUN: 55.86 mg/dL
  CREA: 38.11 ± 9.56 µmol/L
  TP: 46.12 ± 2.27 g/L
[2]; [3]
  effect on renal function, conclusion in words: no significant difference compared with the model group

## C[C@@H]1C[C@H]2[C@@H]3CCC4=CC(=O)C=C[C@]4(C)[C@@]3(F)[C@@H](O)C[C@]2(C)[C@@]1(O)C(=O)CO [Dexamethasone, reference compound]
[1]; 0.3 mg/kg
  Urinary Protein, 5th day of administration: 5.15 ± 0.89 mg/mL
  Urinary Protein, 6th day of administration: 5.52 ± 1.36 mg/mL
  Urinary Protein, 7th day of administration: 5.63 ± 0.58 mg/mL
  BUN: 79.3 ± 33.6 mg/dL
  CREA: 83.2 ± 31.9 µmol/L
  TP: 65.7 ± 5.8 g/L
[2]; 0.6 mg/kg
  Urinary Protein: 1.00 mg/mL
  BUN: 42.97 mg/dL
  CREA: 30.10 µmol/L
  TP: 52.90 g/L

Reference: patent US11253471B2, “Rectal mucosal administration preparation of Pulsatilla chinensis saponin B4 and preparation method therefor” (priority 2018, dated 2022)
